According to patent US20250147039A1, “Compounds for complexation of rare earth elements and/or s-, p-, d- block metals, their coordination compounds, peptide conjugates, method of their preparation and use thereof” (USTAV ORGANICKE CHEMIE A BIOCHEMIE AV CR V.V.I., priority 2021, published 2025):

What was measured:
[1] = Formation of 1,5-cz-[M(Lig)] from Lig and M^III ions (metal dependent click-zip) (Charts 4, 5); format: physicochemical; settings: MOPS/NaOH buffer pH 7.0, TD728, TD827 in 50% i-PrOH, TD714 sum of two diastereoisomers
[2] = Formation of 1,5-cz-[M(Lig)] from Lig and M^II ions (metal dependent click-zip) (Charts 6, 7); format: physicochemical; settings: MOPS/NaOH buffer pH 7.0; for conversion to 1,5-cz-[M(Lig)], Ca^II / conversion to 1,5-cz-[M(Lig)], Cd^II: TD728 in 50% i-PrOH
[3] = Alkali metal dependent formation of 1,5-cz-Lig and 1,4-cz-Lig isomers from Lig at pH 10.2 (Chart 14); format: physicochemical; settings: B: 1 day at 80° C., Borate/(M^I)2CO3 buffer pH 10.2
[4] = Formation of 1,5-cz-[Ln(Lig)] from Lig and Ln^III ions (metal dependent click-zip), MOPS/NaOH buffer pH 7.0, analytical HPLC (Charts 1, 2); settings: MOPS/NaOH buffer pH 7.0
[5] = visible analyte free precipitate

conversion to 1,5-cz-[M(Lig)], Y^III ([1]; 1 week at 80° C.): 89% | conversion to 1,5-cz-[M(Lig)], Y^III ([1]; 1 hour at 80° C.): 22% | conversion to 1,5-cz-[M(Lig)], Ba^II ([2]; 1 week at 80° C.): 0% | conversion to 1,5-cz-[M(Lig)], Sr^II ([2]; 1 week at 80° C.): 0% | conversion to 1,5-cz-[M(Lig)], Ca^II ([2]; 1 week at 80° C.): 6% | conversion to 1,5-cz-[M(Lig)], Cd^II ([2]; 1 week at 80° C.): 92% | conversion to 1,5-cz-[M(Lig)], Ba^II ([2]; 1 hour at 80° C.): 0% | conversion to 1,5-cz-[M(Lig)], Sr^II ([2]; 1 hour at 80° C.): 0% | conversion to 1,5-cz-[M(Lig)], Ca^II ([2]; 1 hour at 80° C.): 0% | conversion to 1,5-cz-[M(Lig)], Cd^II ([2]; 1 hour at 80° C., TD714 sum of two diastereoisomers): 89% | conversion to 1,4-cz-Lig isomer, Cs^I [3]: 44% | conversion to 1,4-cz-Lig isomer, K^I [3]: 46% | conversion to 1,4-cz-Lig isomer, Na^I [3]: 7% | conversion to 1,4-cz-Lig isomer, Rb^I [3]: 45% | conversion to 1,5-cz-Lig isomer, Cs^I [3]: 9% | conversion to 1,5-cz-Lig isomer, K^I [3]: 10% | conversion to 1,5-cz-Lig isomer, Na^I [3]: 81% | conversion to 1,5-cz-Lig isomer, Rb^I [3]: 9% | conversion to 1,4-cz-Lig isomer, Li^I [3, 5]: 12% | conversion to 1,5-cz-Lig isomer, Li^I [3, 5]: 15% | conversion to 1,5-cz-[Ln(Lig)], Ce^III ([4]; after 1 week at 80° C.): 40% | conversion to 1,5-cz-[Ln(Lig)], Ce^III ([4]; after 1 hour at 80° C.): 1% | conversion to 1,5-cz-[Ln(Lig)], Dy^III ([4]; after 1 week at 80° C.): 91% | conversion to 1,5-cz-[Ln(Lig)], Dy^III ([4]; after 1 hour at 80° C.): 23% | conversion to 1,5-cz-[Ln(Lig)], Er^III ([4]; after 1 week at 80° C.): 93% | conversion to 1,5-cz-[Ln(Lig)], Er^III ([4]; after 1 hour at 80° C.): 34% | conversion to 1,5-cz-[Ln(Lig)], Eu^III ([4]; after 1 week at 80° C.): 85% | conversion to 1,5-cz-[Ln(Lig)], Eu^III ([4]; after 1 hour at 80° C.): 7% | conversion to 1,5-cz-[Ln(Lig)], Gd^III ([4]; after 1 week at 80° C.): 85% | conversion to 1,5-cz-[Ln(Lig)], Gd^III ([4]; after 1 hour at 80° C.): 9% | conversion to 1,5-cz-[Ln(Lig)], Ho^III ([4]; after 1 week at 80° C.): 93% | conversion to 1,5-cz-[Ln(Lig)], Ho^III ([4]; after 1 hour at 80° C.): 26% | conversion to 1,5-cz-[Ln(Lig)], La^III ([4]; after 1 week at 80° C.): 4% | conversion to 1,5-cz-[Ln(Lig)], La^III ([4]; after 1 hour at 80° C.): 0% | conversion to 1,5-cz-[Ln(Lig)], Lu^III ([4]; after 1 week at 80° C.): 93% | conversion to 1,5-cz-[Ln(Lig)], Lu^III ([4]; after 1 hour at 80° C.): 37% | conversion to 1,5-cz-[Ln(Lig)], Nd^III ([4]; after 1 week at 80° C.): 73% | conversion to 1,5-cz-[Ln(Lig)], Nd^III ([4]; after 1 hour at 80° C.): 3% | conversion to 1,5-cz-[Ln(Lig)], Pr^III ([4]; after 1 week at 80° C.): 80% | conversion to 1,5-cz-[Ln(Lig)], Pr^III ([4]; after 1 hour at 80° C.): 2% | conversion to 1,5-cz-[Ln(Lig)], Sm^III ([4]; after 1 week at 80° C.): 82% | conversion to 1,5-cz-[Ln(Lig)], Sm^III ([4]; after 1 hour at 80° C.): 5% | conversion to 1,5-cz-[Ln(Lig)], Tb^III ([4]; after 1 week at 80° C.): 92% | conversion to 1,5-cz-[Ln(Lig)], Tb^III ([4]; after 1 hour at 80° C.): 17% | conversion to 1,5-cz-[Ln(Lig)], Tm^III ([4]; after 1 week at 80° C.): 94% | conversion to 1,5-cz-[Ln(Lig)], Tm^III ([4]; after 1 hour at 80° C.): 40% | conversion to 1,5-cz-[Ln(Lig)], Yb^III ([4]; after 1 week at 80° C.): 93% | conversion to 1,5-cz-[Ln(Lig)], Yb^III ([4]; after 1 hour at 80° C.): 40%
Structure (SMILES): C#Cc1cccc(CN2CCN(CC(=O)O)CCN(Cc3cccc(CN=[N+]=[N-])n3)CCN(CP(=O)(O)O)CC2)n1 [TD714]
